Experimental data from a melting point compilation (Tetko et al.; mined from patent text by program, amines drawn as free bases though some values may be those of a salt).

Row | SMILES | melting point
1 | O=C(CNC(=O)c1ccncc1)NC1CCN(CCc2c[nH]c3ccccc23)CC1 | 211 to 215 °C
2 | O=C(c1ccc(Cl)cc1)c1cc(-c2ccncc2)c(N2CCOCC2)s1 | 176 °C
3 | ClCc1ccc2c(c1)Nc1nccnc1S2 | 161 to 162 °C
4 | CCCOc1ccc(C(=O)CBr)cc1-c1nc2c(CCC)nn(C)c2c(=O)[nH]1 | 136 to 137 °C
5 | Cc1cn(-c2ncccn2)cc1C(=O)NC(=N)N | 208 °C
6 | CCOC(=O)C(=CNc1ccc(F)c(Cl)c1)C(=O)OCC | 71.5 to 72.5 °C
7 | CN(C)CCN(C)C(=O)Oc1ccc(Cl)cc1Cn1nc(-c2ccc(C(F)(F)F)cc2)oc1=O | 127 to 129 °C
8 | CCCCCc1cc2c(cc1/C=C/C=C/C(C)=C/C(=O)O)C(C)(C)CCC2(C)C | 164 to 166 °C
9 | CCOC(=O)/C(=C\Nc1cc(C)cc(C)c1)c1ccc(OC)cc1 | 93 to 94 °C
10 | CCOC(=O)C(NC(=O)Cc1ccc(N)cn1)C(=O)OCC | 89 to 90 °C
11 | COc1cc(C)nc(NC(=O)NS(=O)(=O)c2c(Br)csc2C(=O)c2cccs2)n1 | 106 °C
12 | COCCOC(=O)c1ccc(O)cc1 | 90 to 93 °C
13 | Cc1nc(-n2ccc(-c3ccc(Cl)cc3)cc2=O)sc1C(=O)NCc1ccccc1 | 265 to 267 °C
14 | Cc1cccc(N2CC(=O)N(c3ccc(S(N)(=O)=O)cc3Cl)C2)c1 | 198 to 202 °C
15 | CCO[C@@H](Cc1ccc(OCCc2nc(-c3ccc(-c4ccccc4)cc3)oc2C)c2ccsc12)C(=O)O | 163 to 164 °C
16 | CS(=O)(=O)Nc1cccc(Nc2nc(NCc3cccnc3)c3nc[nH]c3n2)c1 | 144 to 147 °C
17 | FC(F)(F)c1cccc(-c2cc(C(F)(F)F)n3ncc(-c4cccnc4)c3n2)c1 | 171 °C
18 | COc1ccc(C(=O)N(C)CC(O)COc2cccc3[nH]c4ccccc4c23)cc1OC (stereo not drawn) | 77 to 80 °C
19 | CN1CCC2=C(C=CCC2)C(N)C1=O (stereo not drawn) | 69 to 81 °C
20 | Nc1cc(CBr)nn1-c1c(Cl)cc(C(F)(F)F)cc1Cl | 220 °C
21 | Cc1c(O)ccc2c(=O)c(-c3cccc(C(F)(F)F)c3)coc12 | 283 to 284 °C
22 | NC1=Nc2ccccc2CS1 | 132 to 135 °C
23 | CCNC(=O)c1sc(SC)c2c1CCc1sc(-c3ccccc3)nc1-2 | 211 to 212 °C
24 | COc1ccc(C2CNCc3cc(N)ccc32)cc1OC (stereo not drawn) | 157 to 159 °C
25 | CCCc1c[nH]nc1OCCCc1cn(-c2ccc(C(F)(F)F)cn2)nc1OCC | 121 to 122 °C

Row | SMILES | melting point
26 | CC(=O)NC[C@H]1CN(c2ccc(N3CCC(n4nnc(N5CCN(C#N)CC5)n4)CC3)c(F)c2)C(=O)O1 | 208 to 210 °C
27 | Cc1ncc(N)cc1Nc1nccc(-c2cccnc2)n1 | 135 °C
28 | COc1cc(CCCC2OC(=O)NC2=O)ccc1OCc1coc(-c2ccccc2)n1 (stereo not drawn) | 134 to 135 °C
29 | CN1CCc2c(Br)ccc([N+](=O)[O-])c2C1 | 85 to 87 °C
30 | CC1CC(=O)NN=C1c1ccc(NC(=O)OC2CCC2)cc1 (stereo not drawn) | 245 to 246 °C
31 | CC(=O)c1c(C)c(C)c(C(C)=O)c2c1C(=O)c1ccccc1C2=O | 222 to 224 °C
32 | COC(=O)CSc1nc(Sc2ccc(Cl)cc2)ncc1[N+](=O)[O-] | 157 to 159 °C
33 | COc1c(Cl)cc2nc3c(=O)[nH][nH]c(=O)c3c(O)c2c1Cl | 210 to 211 °C
34 | Cc1ccc(NC(=O)c2ccc(O)c([N+](=O)[O-])c2)cc1C | 209 to 212 °C
35 | Cc1nc2cc(NC(=O)Nc3cccc(C(F)(F)F)c3)ccc2o1 | 184 to 186 °C
36 | N=C(NC1CC1)N[N+](=O)[O-] | 127 to 130 °C
37 | O=[N+]([O-])C=Cc1c[nH]c2ccc(-c3ccc4[nH]cnc4c3)cc12 | > 280 °C
38 | O=C(Nc1cccnc1)N1CCN(c2cc(-c3ccc(F)cc3F)ncn2)CC1 | 171 to 172 °C
39 | O=C(O)c1c2nc3ccccc3c-2[nH]c2ccc(F)cc12 | > 243 °C
40 | Fc1ccc2c(c1)C1OC1c1ccccc1C2 (stereo not drawn) | 239 °C
41 | CNc1nc(-c2cccc(NC(=O)c3ccc(OCc4ccccc4)cc3)c2)c2cc(OC)c(OC)cc2n1 | 110 to 112 °C
42 | COc1nc(C)cnc1NS(=O)(=O)c1cccnc1-c1ccc(C(C)(C)C)cc1 | 150 to 151 °C
43 | CC(C)(C)c1ccc(OC2CCOC2)c(N)c1 (stereo not drawn) | 79 to 82 °C
44 | CCn1cc(C(=O)O)c(=O)c2cc(F)c(N3CCSC3)cc21 | 270 to 273 °C
45 | COC(=O)Nc1nc(-c2ccccc2)c(-c2nc3ccccc3c(=O)n2-c2ccc(OC)cc2)s1 | 272 to 274 °C
46 | COC(=O)c1cccc(-c2ncc(OCCCN(C)C)cn2)c1 | 66 °C
47 | COc1ccc(N2CCN(c3c(C)c(C)c4c(c3C)C(Cc3ccccc3)C(C)(C)O4)CC2)cc1 (stereo not drawn) | 146 to 148 °C
48 | CCOC(=O)Cc1ccc2c(c1)C(O)c1ccccc1O2 (stereo not drawn) | 214 to 219 °C
49 | CC1(C)C(c2cccs2)=NN=C1c1cccs1 | 153 to 156 °C
50 | O=C(Nc1ccccc1C(=O)NCCc1ncc[nH]1)c1ccc(-c2ccccc2)cc1 | 197 to 201 °C

Row | SMILES | melting point
51 | CCOc1cc(C=[N+]([O-])C2CCCCC2)ccc1OC | 114 °C
52 | CC(C)(C)c1ccc(-c2c(Cl)c(CN3C(=O)CCC3=O)nc3sc4c(c23)CCN(Cc2ccccc2)C4)cc1 | 198 to 199 °C
53 | COc1ccc(C(=O)c2ccsc2)cc1 | 58 to 61 °C
54 | COc1ccc(C2(C#N)CCC(=O)CC2)cc1OC | 111 to 112 °C
55 | CCCCCCCNC(=O)Nc1ccc(N(C)C)cc1C(=O)NCC1CC2CCC(C1)N2C(c1ccccc1)c1ccccc1 (stereo not drawn) | 195 °C
56 | O=C(Nc1cccnc1)N1CCN(c2cc(-c3cccc(F)c3F)ncn2)CC1 | 179 to 180 °C
57 | COc1ccc(-c2cncc(C#N)c2Nc2ccc3[nH]ccc3c2)cc1Br | 148 to 150 °C
58 | COc1c(C2CCN(CCCCNC(=O)c3sc(-c4ccc(C#N)cc4)nc3CO)CC2)ccc2c1CCCC2 | 212 °C
59 | Nc1cc(C[C@H](Nc2nc3ccc(Cl)cc3cc2C(=O)O)C(=O)O)ccc1Oc1nc2ccc(Cl)cc2cc1C(=O)O | > 250 °C
60 | CCOC(=O)CNC(=S)NC(=Nc1ccc([N+](=O)[O-])cc1)c1ccccc1 | 189 to 190 °C
61 | CC(C)N1CC(CCN2CCN(c3ccccc3)CC2)OC1=O (stereo not drawn) | 74 to 75 °C
62 | COc1cccc(NC(=O)C(C)(C)C)c1C(C)=O | < 48 °C
63 | FC(F)(F)c1ccc(-c2cc(Cl)ncn2)cc1 | 227 to 230 °C
64 | O=C1CCC(c2ccc(C3=NNC(=O)CC3)cc2)=NN1 | > 250 °C
65 | O=C(Nc1cccc2c1C1CCCCN1C2=O)Nc1nc(Cl)c(Cl)c(Cl)c1Cl (stereo not drawn) | 246 °C
66 | COc1cc2c(cc1-c1ccccc1F)NC(=O)CC(c1cccc(-n3ccnc3C)c1)=N2 | 220 to 222 °C
67 | Cc1nnc(-c2ccc3occ(-c4cnn(Cc5ccccc5)c4)c3c2)o1 | 151 to 152 °C
68 | COc1cc2c(cc1Cl)C(Cl)(c1ccccc1Cl)C(=O)N2 (stereo not drawn) | 237 to 240 °C
69 | CCCCCCCCCCCCCCCC(=O)OCC1OC(n2cc(C)c(=O)[nH]c2=O)CC1F (stereo not drawn) | 65 to 66 °C
70 | CC(=O)CCc1ccc(C(N)=O)cc1 | 152 to 154 °C
71 | CC(=O)CC(=O)c1ccc(C)nc1 | 57 to 58 °C
72 | N#Cc1nn(-c2c(Cl)cc(C(F)(F)F)cc2Cl)c(N)c1OC(F)F | 152 to 154 °C
73 | CS(=O)(=O)c1ccc(-c2cnn(CC(F)(F)F)c(=O)c2-c2ccc(F)cc2)cc1 | 177 to 179 °C
74 | O=C(Cc1ncc[nH]1)c1ccc2ccccc2c1 | 125 to 126 °C
75 | Cc1cc(C)cc(C(=O)N2CCN(C(=O)CCNC3CCN(Cc4ccccc4)CC3)C(c3ccc(Cl)c(Cl)c3)C2)c1 (stereo not drawn) | 51 to 54 °C

Row | SMILES | melting point
76 | CCCc1c(OCCCCCC(=O)NC(C)CCCc2cccnc2)ccc(C(C)=O)c1O (stereo not drawn) | 63 to 66 °C
77 | CC(=O)C(Cc1cccc(Br)c1)NC(=O)c1ccc(C)cc1 (stereo not drawn) | 106 to 107 °C
78 | CC(C)(C)OC(=O)COc1cc(NC(=O)OC(C)(C)C)c(N)cc1-c1ccc(F)cc1 | 30 to 33 °C
79 | Nc1nc(NCC(c2ccccc2)c2ccc(F)cc2)c2ncn(C3OC(CO)C(O)C3O)c2n1 (stereo not drawn) | 127 to 130 °C
80 | CSc1ccc(/C=C/C(=O)/C=C/C(=O)O)cc1 | 160 to 163 °C
81 | CNC(=O)NCCn1c(-c2ccc(N3CCOCC3)cc2)csc1=Nc1ccc(F)cc1 | 191 to 194 °C
82 | CCCCCCCCCCCCCCCCn1cccc1C1=CC(=O)c2ccccc2C1=O | 56 to 57 °C
83 | O=C(/C=C\[C@H]1CC1(c1ccccc1)c1ccccc1)NCCCCc1cccnc1 | 115 to 116 °C
84 | CC(C)(C)OC(=O)NC1CCCCCC=CC2CC2(C(=O)NS(=O)(=O)C2CC2)NC(=O)C2CC(OC(=O)c3ccccc3)CN2C1=O (stereo not drawn) | 140 to 142 °C
85 | COc1cc(Nc2nccc(-c3ccc(N4CCC(O)CC4)nc3)n2)cc(OC)c1OC | 127 to 128 °C
86 | CCCCc1ncc(CNC(Cc2cccs2)C(=O)O)n1Cc1ccc(C(=O)O)cc1 (stereo not drawn) | 151 to 152 °C
87 | OCc1ccc2oc(-c3ccc(O)cc3)cc2c1 | 248 to 250 °C
88 | CC(C)(C)C(O)C(CSc1ccc(Cl)cc1)n1cncn1 (stereo not drawn) | 84 °C
89 | COc1ccc(C(=O)NC(=O)NC2CN3CCC2CC3)cc1 (stereo not drawn) | 166 to 168 °C
90 | CCOC(=O)C1=C(C)Nc2snc(CCCOCc3ccccc3)c2C1c1cccc([N+](=O)[O-])c1 (stereo not drawn) | 109 to 110 °C
91 | CC1(C)Cc2c(c(N3CCCCC3)nc3sc4c(NCCN5CCOCC5)ncnc4c23)CO1 | 158 °C
92 | COc1cccc2c(=O)n(S(=O)(=O)c3ccc(Cl)cc3)c(=O)[nH]c12 | 220 to 222 °C
93 | O=C(NN=Cc1ccc2ccccc2n1)c1ccccc1[N+](=O)[O-] | 195 to 196 °C
94 | Cc1noc(NS(=O)(=O)c2cccc(Cl)c2Cl)c1Br | 166 to 169 °C
95 | CCCC(C)(C(=O)N(C)C)n1cc(C)c(-c2ccccc2)n1 (stereo not drawn) | 90 to 92 °C
96 | COc1ccc(S(=O)(=O)c2cc(O)c(O)cc2C)cc1NC(C)=O | 230 to 232 °C
97 | CCC(NC(=O)c1ccccc1)C(=O)OC1CCCCC1 (stereo not drawn) | 60 to 63 °C
98 | CCOCOc1ccc(-c2ccc(C(F)(F)F)cc2)cc1Sc1cc(-c2ccc(C(F)(F)F)cc2)ccc1OCOCC | 61 to 62 °C
